Results on one compound are retold here after ChEMBL document CHEMBL6153102, “Rational Design, Synthesis, and Biological Evaluation of Novel c-Met Degraders for Lung Cancer Therapy” (J Med Chem, 2025).

Molecules are shown by their SMILES. Calls of active or inactive are those of the source.

Data set [1] can be described thus: Stability in human plasma assessed as half life. In kind it is ADME, cell-free.
Data set [2] in a line: AUC (0 to t) in Sprague-Dawley rat at 5 mg/kg, ip measured upto 24 hrs by LC-MS/MS analysis. To be noted: in vivo. In kind it is ADME, organism-based.
In data set [3] the test system is EBC-1. The data set can be described thus: Induction of apoptosis in human EBC-1 cells assessed as necrotic cells at 15 nM incubated for 24 hrs by Annexin V/FITC staining based flow cytometry analysis (reference value: 0.35 %). In kind it is functional. A general note: Flow cytometry measures light scatter and fluorescence of single cells or particles in a stream.

For data set [4], the target named is T1, Protein cereblon/Hepatocyte growth factor receptor (Homo sapiens, UniProt P08581+Q96SW2). As to the kind of experiment: PROTAC activity at c-Met/CRBN in human HCT-116 cells assessed as reduction in c-Met level at 3.9 to 125 nM incubated for 24 hrs in presence of tepotinib by Western blot analysis. In kind it is cell-based. To be noted: dose 3.9-125 nM.
Data set [5] has as its target T1, Protein cereblon/Hepatocyte growth factor receptor. The data set can be described thus: PROTAC activity at c-Met/CRBN in human EBC-1 cells assessed as reduction in FOSL1 level at 15.6 nM incubated for 24 hrs by proteomics analysis. Type of data set: cell-based.
Data set [6] has as its system EBC-1. The data set can be described thus: Antitumor activity against human EBC-1 cells xenografted in ip dosed BALB/c nude mouse assessed as reduction in tumor growth administered for 7 days. Type of data set: functional, organism-based. Conditions: dose 10-20 mg/kg, time 7.0 day. (A xenograft is tissue or cells of one species grown in another, often human tumour cells in immunodeficient mice.)

Data set [7] relates to EBC-1. The data set can be described thus: Induction of apoptosis in human EBC-1 cells assessed as late apoptotic cells at 50 nM incubated for 24 hrs by Annexin V/FITC staining based flow cytometry analysis (reference value: 1.65 %). In kind it is functional.
Data set [8] in a line: MRT (0 to infinity) in Sprague-Dawley rat at 2 mg/kg, iv measured upto 24 hrs by LC-MS/MS analysis. To be noted: in vivo. Type of data set: ADME, organism-based.
For data set [9], the target named is T1, Protein cereblon/Hepatocyte growth factor receptor. The data set can be described thus: PROTAC activity at c-Met/CRBN in human A549 cells assessed as reduction in c-Met level at 3.9 to 125 nM incubated for 24 hrs in presence of tepotinib by Western blot analysis. Type of data set: cell-based. Conditions: dose 3.9-125 nM. Background: A western blot detects proteins with antibodies after separation by electrophoresis.

Data set [10] can be described thus: Stability in human whole blood assessed as half life. Type of data set: ADME, tissue-based.
The target of data set [11] is T1, Protein cereblon/Hepatocyte growth factor receptor. As to the kind of experiment: PROTAC activity at c-Met/CRBN in human EBC-1 cells assessed as reduction in AKR1C2 level at 15.6 nM incubated for 24 hrs by proteomics analysis. Type of data set: cell-based.

T1 sequence (P08581 25-1390 limits assumed): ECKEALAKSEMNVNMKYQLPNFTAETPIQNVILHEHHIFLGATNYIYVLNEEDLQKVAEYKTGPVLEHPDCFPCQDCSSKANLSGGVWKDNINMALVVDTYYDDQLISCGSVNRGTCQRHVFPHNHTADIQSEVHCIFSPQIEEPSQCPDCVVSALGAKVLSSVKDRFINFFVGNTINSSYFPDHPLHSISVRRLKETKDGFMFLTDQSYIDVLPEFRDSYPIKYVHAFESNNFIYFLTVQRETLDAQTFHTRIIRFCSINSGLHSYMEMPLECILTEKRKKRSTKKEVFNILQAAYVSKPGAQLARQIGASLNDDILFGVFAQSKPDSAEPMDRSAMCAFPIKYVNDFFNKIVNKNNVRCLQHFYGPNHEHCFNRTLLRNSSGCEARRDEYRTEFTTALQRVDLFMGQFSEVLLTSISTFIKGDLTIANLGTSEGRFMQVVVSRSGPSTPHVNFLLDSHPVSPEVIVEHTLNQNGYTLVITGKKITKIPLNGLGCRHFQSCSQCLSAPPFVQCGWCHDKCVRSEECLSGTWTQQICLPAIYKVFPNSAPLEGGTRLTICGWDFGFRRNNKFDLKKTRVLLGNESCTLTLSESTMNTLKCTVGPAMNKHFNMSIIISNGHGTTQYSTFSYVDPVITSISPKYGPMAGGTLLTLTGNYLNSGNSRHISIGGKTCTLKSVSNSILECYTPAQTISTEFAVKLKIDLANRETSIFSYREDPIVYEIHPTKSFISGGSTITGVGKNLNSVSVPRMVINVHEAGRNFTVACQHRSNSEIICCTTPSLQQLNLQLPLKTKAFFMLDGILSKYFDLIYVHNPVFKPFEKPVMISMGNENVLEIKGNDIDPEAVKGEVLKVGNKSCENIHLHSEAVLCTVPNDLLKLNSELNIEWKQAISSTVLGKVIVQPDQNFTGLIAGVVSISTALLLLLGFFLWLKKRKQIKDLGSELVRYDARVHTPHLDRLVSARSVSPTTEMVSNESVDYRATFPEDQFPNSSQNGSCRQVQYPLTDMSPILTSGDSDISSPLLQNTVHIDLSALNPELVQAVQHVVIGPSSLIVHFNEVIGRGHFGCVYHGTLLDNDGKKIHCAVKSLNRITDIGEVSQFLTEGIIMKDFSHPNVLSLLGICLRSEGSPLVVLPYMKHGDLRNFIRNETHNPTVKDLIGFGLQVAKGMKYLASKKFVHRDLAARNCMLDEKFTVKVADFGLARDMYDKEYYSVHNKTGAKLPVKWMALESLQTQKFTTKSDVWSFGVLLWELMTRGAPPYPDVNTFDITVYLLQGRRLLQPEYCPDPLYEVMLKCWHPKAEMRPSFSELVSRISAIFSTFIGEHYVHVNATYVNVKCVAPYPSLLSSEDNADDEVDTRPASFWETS
T1 sequence (Q96SW2 whole entry partner): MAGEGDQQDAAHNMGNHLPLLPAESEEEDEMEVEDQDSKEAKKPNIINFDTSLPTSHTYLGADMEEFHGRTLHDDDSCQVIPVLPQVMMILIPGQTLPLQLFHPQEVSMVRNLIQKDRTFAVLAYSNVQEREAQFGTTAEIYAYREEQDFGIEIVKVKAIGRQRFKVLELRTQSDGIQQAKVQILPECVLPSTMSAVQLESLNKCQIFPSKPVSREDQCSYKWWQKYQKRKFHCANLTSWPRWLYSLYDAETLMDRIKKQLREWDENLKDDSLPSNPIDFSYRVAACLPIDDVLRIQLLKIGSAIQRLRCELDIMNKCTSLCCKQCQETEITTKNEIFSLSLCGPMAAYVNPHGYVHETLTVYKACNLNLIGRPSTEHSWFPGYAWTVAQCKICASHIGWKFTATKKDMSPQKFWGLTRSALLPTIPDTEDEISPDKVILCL

In general, half-life refers to the time needed for the level to fall by half in the phase considered. As usually defined, the MRT is a mean duration of stay, worked out from the concentration-time curve. With `COc1ccc(C(=O)N2CCC3(CCN(C(=O)CN4CCC(COc5cnc(-c6cccc(Cn7nc(-c8cccc(C#N)c8)ccc7=O)c6)nc5)CC4)CC3)CC2)cc1N1CCC(=O)NC1=O`, the half-life in data set [1] and in data set [10] was greater than 120 min throughout. Moreover, in data set [2], the AUCt came out at 655 ng·h/mL. Besides, the Activity is 0.58% in the data set with EBC-1 [3], “Dose-dependent-effect” in the data set with EBC-1 [6] and 3.47% with EBC-1 [7]. Further, the result in [4] and in data set [9] was inactive. Also, the outcome in data set [5] and in [11] was Active. The MRT in data set [8] is 3.58 h.
